Where a name gives a salt, the structure may show the parent alone.
Legend:
Assay type in all cases: in vivo
dog heart in situ = experiment: Antianginal activity: aortic-coronary sinus difference in oxygen (myocardial oxygen consumption) in anesthetized dogs; conditions: 1 mg/kg i.v.; for antianginal activity (conclusion in words): based upon comparison with nitroglycerin, named compounds 'particularly'
Protocol: Angina pectoris is a clinical condition of hypoxia that results from an imbalance in myocardial oxygen supply and demand. A drug reducing oxygen demand is useful in the treatment of angina pectoris, as has been the case with nitroglycerin and the beta-adrenergic blocking agents like propranolol (J. R. Paratt, Advan. Drug Res. 9:103-134, 1974). Accordingly,the antianginal activity of 2-substituted indoloquinolizines was evaluated by assessing their capacity to reduce oxygen consumption by the dog heart in situ. This method allows measurement of the difference in oxygen content of the arterial and venous blood.
Mongrel dogs were anesthetized with pentobarbital and cannulas inserted in the trachea and in a femoral vein for artificial respiration with room air and for injection of test compounds, respectively. Heparin was administered intravenously to prevent blood clotting. The chest was opened at the sternal midline and an additional cannula introduced in the coronary sinus. Samples of blood were obtained from the coronary sinus cannula and from the thoracic aorta by direct puncture of the vessel. Partial pressure of oxygen in the samples was determined with a blood gas analyzer. Test compounds were injected intravenously at a dose of 1 mg/kg; oxygen measurements were made before administration and at 1, 5, 10, 20, 30, 40, 50 and 60 min after administration. One animal was used per test compound. As the standard of comparison, nitroglycerin was administered to a test animal and measurements were made in a similar manner.
Differences between partial pressure values in arterial and venous blood samples were calculated for each measurement. Since coronary sinus blood is representative of the venous effluent from the heart, these differences reflect the consumption of oxygen by the myocardium. Thus, the decrease in arteriovenous oxygen difference produced by the compounds by this invention indicates a reduction in myocardial oxygen consumption.

Systolic Blood Pressure = experiment: Antihypertensive activity: indirect systolic blood pressure in renal hypertensive rats; conditions: rat, 31 mg/kg p.o., * in table = statistically significant change from control
Protocol: Rats were made hypertensive by applying a figure of eight ligature to one kidney and removing the contralateral kidney two weeks later. At least four weeks after the second operation the animals were subjected to indirect systolic blood pressure measurements with an occluding cuff and pulse sensor system applied to the tail. Pressure measurements were made before and 1,2,4,6 and 8 hours after oral administration of the test compounds at a dose of 31 mg/kg. Each compound was tested in 5 or 10 rats. Statistical significance of differences between control and post treatment values was determined by Wilcoxon's signed rank test (F. Wilcoxon and R. A. Wilcox, Some Rapid Approximate Statistical Procedures, Lederle Laboratories, Pearl River, 1964).

[1] = tested on: ventricular arrhythmia produced by chloroform; experiment: Antiarrhythmic activity: protection from chloroform-induced ventricular arrhythmia in mice (Lawson model); conditions: mouse; for Antiarrhythmic activity, ED50 symbol (failed screening dose) / mice protected of 5: 31 mg/kg i.p.; for Antiarrhythmic activity, ED50 symbol (failed screening dose): groups of 5 mice; for ED50: ip, 10 min, i.p., 10 min before chloroform, 95% confidence limits in parentheses, read-out: ED50 (95% C.L.)
Protocol: The antiarrhythmic activity of the compounds of this invention was determined in the experimental model described by J. W. Lawson (J. Pharmacol. Exper. Therap. 160:22-31, 1968). Test compounds were administered to groups of 5 mice at an intraperitoneal dose of 31 mg/kg. Ten minutes after injection each mouse was placed in a covered 300 ml glass beaker which contained cotton saturated with chloroform. The animal was observed closely and removed from the beaker immediately after respiratory arrest. The heart was quickly exposed by making an incision through the abdomen, diaphragm, thorax and pericardium for visual inspection of ventricular rate and rhythm. Ventricular contractions were counted for 30 seconds and animals with a rate not exceeding 100 beats per 30 seconds were considered protected from the ventricular arrhythmia produced by chloroform. Compounds protecting at least 3 of the 5 mice were subsequently tested at various doses and the results obtained were used to calculate the mean effective doses (ED50) and 95% confidence limits after the method of Litchfield and Wilcoxon (J. Pharmacol. Exper. Therap. 96:99-113, 1949). Table A presents the results obtained in the antiarrhythmic study.

| SMILES | Arterio-Venous Difference in Oxygen Partial Pressure at 1 min (dog heart in situ) [mmHg] | Arterio-Venous Difference in Oxygen Partial Pressure at 5 min (dog heart in situ) [mmHg] | Arterio-Venous Difference in Oxygen Partial Pressure at 10 min (dog heart in situ) [mmHg] | Arterio-Venous Difference in Oxygen Partial Pressure at 20 min (dog heart in situ) [mmHg] | Arterio-Venous Difference in Oxygen Partial Pressure at 30 min (dog heart in situ) [mmHg] | Arterio-Venous Difference in Oxygen Partial Pressure at 40 min (dog heart in situ) [mmHg] | Arterio-Venous Difference in Oxygen Partial Pressure at 50 min (dog heart in situ) [mmHg] | Arterio-Venous Difference in Oxygen Partial Pressure at 60 min (dog heart in situ) [mmHg] | Change in Systolic Blood Pressure at 1 hr (Systolic Blood Pressure) | Change in Systolic Blood Pressure at 2 hr (Systolic Blood Pressure) | Change in Systolic Blood Pressure at 4 hr (Systolic Blood Pressure) | Change in Systolic Blood Pressure at 6 hr (Systolic Blood Pressure) | Change in Systolic Blood Pressure at 8 hr (Systolic Blood Pressure) | Antiarrhythmic activity, ED50 symbol (failed screening dose) [1] | antianginal activity (conclusion in words) (dog heart in situ) | ED50 [1] [mg/kg] | mice protected of 5 [1] |
| --- | --- | --- | --- | --- | --- | --- | --- | --- | --- | --- | --- | --- | --- | --- | --- | --- | --- |
| Cc1cccc(NC2CCN3CCc4c(n(Cc5ccccc5)c5ccccc45)C3C2)c1.Cl.Cl (stereo not drawn) [TR3008, 12-benzyl-2-(3-methylanilino)-1,2,3,4,6,7,12,12b-octahydroindolo[2,3-a]quinolizine dihydrochloride] | 20 | 23 | 22 | 23 | 25 | 25 | 24 | 25 | -27 mmHg | -24 mmHg | -17 mmHg | -17 mmHg | -20 mmHg | * (Did not protect 3 of 5 mice and thus was not tested further.) |  |  |  |
| c1ccc(Cn2c3c(c4ccccc42)CCN2CCC(Nc4ccccc4)CC32)cc1 (stereo not drawn) [TR2981, 2-anilino-12-benzyl-1,2,3,4,6,7,12,12b-octahydroindolo[2,3-a]quinolizine dihydrochloride] | 17 | 20 | 21 | 22 | 23 | 24 | 24 | 24 | -2 mmHg | +5 mmHg | -5 mmHg | +7 mmHg | +16 mmHg |  | antianginal activity is seen | 31 | at least 3 of 5 mice |
| O=[N+]([O-])c1cccc(NC2CCN3CCc4c(n(Cc5ccccc5)c5ccccc45)C3C2)c1 (stereo not drawn) [TR2998, 12-benzyl-2-(3-nitroanilino)-1,2,3,4,6,7,12,12b-octahydroindolo[2,3-a]quinolizine] | 12 | 16 | 18 | 17 | 18 | 17 | 19 | 20 | 0 mmHg | -2 mmHg | -4 mmHg | 0 mmHg | -4 mmHg |  | antianginal activity is seen | 12 | at least 3 of 5 mice |
| Cl.Cl.NC1CCN2CCc3c(n(Cc4ccccc4)c4ccccc34)C2C1.O (stereo not drawn) [TR3698, 2-amino-12-benzyl-1,2,3,4,6,7,12,12b-octahydroindolo [2,3-a]-quinolizine dihydrochloride monohydrate] | 27 | 27 | 27 | 28 | 28 | 29 | 28 | 27 | -4 mmHg | -11 mmHg | -3 mmHg | +14 mmHg | +3 mmHg |  |  | 42 | at least 3 of 5 mice |
| Brc1ccc(NC2CCN3CCc4c(n(Cc5ccccc5)c5ccccc45)C3C2)cc1.Cl.Cl (stereo not drawn) [TR3631, 12-benzyl-2-(4-bromoanilino)-1,2,3,4,6,7,12,12b-octahydroindolo[2,3-a]quinolizine dihydrochloride] | 26 | 33 | 32 | 30 | 30 | 32 | 31 | 31 | +10 mmHg | -5 mmHg | +12 mmHg | +3 mmHg | 0 mmHg |  | antianginal activity is seen | 37 | at least 3 of 5 mice |
| CC(=O)Nc1cccc(NC2CCN3CCc4c(n(Cc5ccccc5)c5ccccc45)C3C2)c1.O=C(O)C(=O)O (stereo not drawn) [TR3716, 2-(3-acetamidoanilino)-12-benzyl-1,2,3,4,6,7,12,12b-octahydroindolo[2,3-a]quinolizine oxalate] | 22 | 27 | 29 | 28 | 27 | 28 | 28 | 28 | -49 mmHg | -42 mmHg |  | -17 mmHg | -6 mmHg | * (Did not protect 3 of 5 mice and thus was not tested further.) |  |  |  |

From US4181657A, “2-Aminooctahydroindolo[2,3-a]quinolizines useful in treating cardiovascular disorders” (Miles Laboratories, Inc., priority 1978, dated 1980)
